Measured values: patent US10377791B2, “Therapeutically active estratrienthiazole derivatives as inhibitors of 17 B-hydroxysteroid dehydrogenase, type 1” (FORENDO PHARMA LTD, priority 2013, dated 2019)
Read-outs that look alike come from different tables or passages of the source.

Key:
[1] = target: T1, recombinant human 17β-HSD1 (Homo sapiens, UniProt P14061); assay: Inhibition of recombinant human 17β-HSD1; format: biochemical; settings: read-out: 17β-HDS1 Inhibition % at 1 μM
T1 construct: made in house; host or cells: Sd9 (Sf9) insect cells, baculovirus (Bac to Bac Expression System)
T1 sequence (P14061 1-328): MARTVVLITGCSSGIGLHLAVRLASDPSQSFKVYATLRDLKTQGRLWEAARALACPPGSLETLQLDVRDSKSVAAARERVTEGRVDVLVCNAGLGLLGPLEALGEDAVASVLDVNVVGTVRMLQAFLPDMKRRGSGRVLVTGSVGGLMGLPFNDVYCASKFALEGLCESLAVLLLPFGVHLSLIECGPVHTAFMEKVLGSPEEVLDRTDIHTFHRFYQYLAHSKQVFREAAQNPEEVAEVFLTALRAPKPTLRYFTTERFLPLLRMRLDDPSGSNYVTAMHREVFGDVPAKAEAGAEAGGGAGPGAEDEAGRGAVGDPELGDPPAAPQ
Description: Recombinant baculovirus was generated by the “Bac to Bac Expression System” (Invitrogen). Recombinant bacmid was transfected to Sd9 insect cells using “Cellfectin Reagent” (Invitrogen). 60 h later cells were harvested; the microsomal fraction was isolated as described by Puranen, T. J., Poutanen, M. H., Peltoketo, H. E., Vihko, P. T. and Vihko, R. K. (1994) Site-directed mutagenesis of the putative active site of human 17 β-hydroxysteroid dehydrogenase type 1. Biochem. J. 304: 289-293. Aliquots were stored frozen until determination of enzymatic activity.
Recombinant protein (1 μg/ml) was incubated in 20 mM KH2PO4 pH 7.4 with 30 nM estrone (including 800 000 cpm/ml of ^3H-estrone) and 1 mM NADPH for 30 min at RT, in the presence of the potential inhibitor at concentrations 1 μM or 0.1 μM. Inhibitor stock solutions were prepared in DMSO. Final concentration of DMSO was adjusted to 1% in all samples. The enzyme reaction was stopped by addition of 10% trichloroacetic acid (final concentration). Samples were centrifuged in a microtiter plate at 4000 rpm for 10 min. Supernatants were applied to reverse phase HPLC on a Waters Symmetry C18 column, equipped with a Waters Sentry Guard column. Isocratic HPLC runs were performed at RT at a flow rate of 1 ml/min in acetonitrile:water 48:52 as running solvent. Radioactivity was monitored in the eluate by a Packard Flow Scintillation Analyzer. Total radioactivity for estrone and estradiol were determined in each sample and percent conversion of estrone to estradiol was calculated according to the following formula:
(§1) [formula] Percent inhibition was calculated flowingly: % inhibition=100−% conversion

[2] = target: T2, recombinant human 17β-HSD2 (Homo sapiens, UniProt P37059); assay: Inhibition of recombinant human 17β-HSD2; format: biochemical; settings: read-out: 17β-HSD2 Inhibition % at 1 μM
T2 construct: made in house; host or cells: Sd9 (Sf9) insect cells, baculovirus (Bac to Bac Expression System)
T2 sequence (P37059 1-387): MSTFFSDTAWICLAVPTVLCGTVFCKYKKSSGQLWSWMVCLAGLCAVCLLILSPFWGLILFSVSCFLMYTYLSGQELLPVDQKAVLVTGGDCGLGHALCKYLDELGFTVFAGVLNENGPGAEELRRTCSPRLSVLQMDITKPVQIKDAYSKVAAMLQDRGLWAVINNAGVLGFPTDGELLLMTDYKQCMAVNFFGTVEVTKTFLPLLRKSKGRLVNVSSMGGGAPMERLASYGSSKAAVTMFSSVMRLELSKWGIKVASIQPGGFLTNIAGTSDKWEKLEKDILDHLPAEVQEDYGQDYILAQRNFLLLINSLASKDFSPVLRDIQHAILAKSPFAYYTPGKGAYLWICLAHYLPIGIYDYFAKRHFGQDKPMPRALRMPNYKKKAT
Description: Similarly to 17β-HSD1 the Recombinant baculovirus was generated by the “Bac to Bac Expression System” (Invitrogen). Recombinant bacmid was transfected to Sd9 insect cells using “Cellfectin Reagent” (Invitrogen). 60 h later cells were harvested and supernatant were fractionated by the following protocol: • cells were dissolved into 40 ml of A-buffer (40 mM TRIS, pH8.0, 20% glycerol, 20 μM NAD, 0.4 mM PMSF, 150 mM NaCl, 0.5% dodecyl-β-maltoside+protease inhibitor cocktail) • cells were sonicated • lysate was incubated on ice for 15 min • lysate was centrifuged 5000 rpm 15 min, +4° C. • centrifugation of the supernatant 180 000 g 30 min, +4° C. • pellet was dissolved into 8 ml of A-buffer • not resuspended material was removed by centrifugation 5000 rpm 15 min, +4° C. • the clear supernatant was divided into 100 μl aliquots and were stored frozen until determination of enzymatic activity.
The amount of 17β-HSD2 was analysed by immunoblotting and total protein concentration of each extract batch was determined.
Recombinant protein (4 μg/ml) was incubated in 20 mM KH2PO4 pH 8.5 with 50 nM estradiol (including 800 000 cpm/ml of ^3H-estradiol) and 1 mM NADH for 30 min at RT, in the presence of the potential inhibitor at concentrations 1 μM or 0.1 μM. Inhibitor stock solutions were prepared in DMSO. Final concentration of DMSO was adjusted to 1% in all samples. The enzyme reaction was stopped by addition of 10% trichloroacetic acid (final concentration). Samples were centrifuged in a microtiter plate at 4000 rpm for 10 min. Supernatants were applied to reverse phase HPLC on a Waters Symmetry C18 column, equipped with a Waters Sentry Guard column. Isocratic HPLC runs were performed at RT at a flow rate of 1 ml/min in acetonitrile:water 48:52 as running solvent. Radioactivity was monitored in the eluate by a Packard Flow Scintillation Analyzer. Total radioactivity for estrone and estradiol were determined in each sample and percent conversion of estradiol to estrone was calculated according to the following formula:
as §1

[3] = inhibitor at 1 μM, 30 nM estrone, 1 mM NADPH, 30 min at RT
[4] = inhibitor at 1 μM, 50 nM estradiol, 1 mM NADH, 30 min at RT

Compound	inhibition at 1 µM [1, 3] [%]	inhibition at 1 µM [2, 4] [%]	inhibition at 1 µM [1] [%]	inhibition at 1 µM [2] [%]
Cc1ccc(S(=O)(=O)Oc2ccc3c(c2)CCC2C3CC[C@]3(C)C(=O)C[C@@H](CCC(=O)Nc4ncc(C)s4)C23)cc1 (stereo partly drawn) [Compound 27, Toluene-4-sulphonic acid (13S,15R)-13-methyl-15-[2-(5-methylthiazol-2-ylcarbamoyl)-ethyl]-17-oxo-7,8,9,11,12,13,14,15,16,17-decahydro-6H-cyclopenta[a]phenanthren-3-yl ester]	81	5		
Cc1cnc(NC(=O)CC[C@@H]2CC(=O)[C@@]3(C)CCC4c5cc(C(C)(C)C)c(O)cc5CCC4C23)s1 (stereo partly drawn) [Compound 31, 3-((13S,15R)-2-(tert-butyl)-3-hydroxy-13-methyl-17-oxo-7,8,9,11,12,13,14,15,16,17-decahydro-6H-cyclopenta[a]phenanthren-15-yl)-N-(5-methylthiazol-2-yl)propanamide]	87	12		
Cc1cnc(NC(=O)CC[C@@H]2CC(=O)[C@@]3(C)CCC4c5cc(C(C)C)c(O)cc5CCC4C23)s1 (stereo partly drawn) [Compound 32, 3-((13S,15R)-3-hydroxy-2-isopropyl-13-methyl-17-oxo-7,8,9,11,12,13,14,15,16,17-decahydro-6H-cyclopenta[a]phenanthren-15-yl)-N-(5-methylthiazol-2-yl)propanamide]	84	1		
COc1cc2c(cc1C(C)=O)C1CC[C@]3(C)C(=O)C[C@@H](CCC(=O)Nc4ncc(C)s4)C3C1CC2 (stereo partly drawn) [Compound 33, 3-((13S,15R)-2-acetyl-3-methoxy-13-methyl-17-oxo-7,8,9,11,12,13,14,15,16,17-decahydro-6H-cyclopenta[a]phenanthren-15-yl)-N-(5-methylthiazol-2-yl)propanamide]	71	3		
Cc1cnc(NC(=O)CC[C@@H]2CC(=O)[C@@]3(C)CCC4c5cc([N+](=O)[O-])c(O)cc5CCC4C23)s1 (stereo partly drawn) [Compound 34, 3-((13S,15R)-3-hydroxy-13-methyl-2-nitro-17-oxo-7,8,9,11,12,13,14,15,16,17-decahydro-6H-cyclopenta[a]phenanthren-15-yl)-N-(5-methylthiazol-2-yl)propanamide]	91	10		
Cc1cnc(NC(=O)CC[C@@H]2CC(=O)[C@@]3(C)CCC4c5cc([N+](=O)[O-])c(O)c([N+](=O)[O-])c5CCC4C23)s1 (stereo partly drawn) [Compound 36, 3-((13S,15R)-3-hydroxy-13-methyl-2,4-dinitro-17-oxo-7,8,9,11,12,13,14,15,16,17-decahydro-6H-cyclopenta[a]phenanthren-15-yl)-N-(5-methylthiazol-2-yl)propanamide]			87	33
Cc1cnc(NC(=O)CC[C@@H]2CC(=O)[C@@]3(C)CCC4c5cc(N)c(O)cc5CCC4C23)s1 (stereo partly drawn) [Compound 37, 3-((13S,15R)-2-amino-3-hydroxy-13-methyl-17-oxo-7,8,9,11,12,13,14,15,16,17-decahydro-6H-cyclopenta[a]phenanthren-15-yl)-N-(5-methylthiazol-2-yl)propanamide]	88	4		
Cc1cnc(NC(=O)CC[C@@H]2CC(=O)[C@@]3(C)CCC4c5ccc(O)c(N)c5CCC4C23)s1 (stereo partly drawn) [Compound 38, 3-((13S,15R)-4-amino-3-hydroxy-13-methyl-17-oxo-7,8,9,11,12,13,14,15,16,17-decahydro-6H-cyclopenta[a]phenanthren-15-yl)-N-(5-methylthiazol-2-yl)propanamide]	87	9		
Cc1cnc(NC(=O)CC[C@@H]2CC(=O)[C@@]3(C)CCC4c5ccc(OS(C)(=O)=O)c([N+](=O)[O-])c5CCC4C23)s1 (stereo partly drawn) [Compound 39, (13S,15R)-13-methyl-15-(3-((5-methylthiazol-2-yl)amino)-3-oxopropyl)-4-nitro-17-oxo-7,8,9,11,12,13,14,15,16,17-decahydro-6H-cyclopenta[a]phenanthren-3-yl methanesulfonate]	96	1		
Cc1cnc(NC(=O)CC[C@@H]2CC(=O)[C@@]3(C)CCC4c5ccc(OS(C)(=O)=O)c(N)c5CCC4C23)s1 (stereo partly drawn) [Compound 40, (13S,15R)-4-amino-13-methyl-15-(3-((5-methylthiazol-2-yl)amino)-3-oxopropyl)-17-oxo-7,8,9,11,12,13,14,15,16,17-decahydro-6H-cyclopenta[a]phenanthren-3-yl methanesulfonate]	75	1		
Cc1cnc(NC(=O)CC[C@@H]2CC(=O)[C@@]3(C)CCC4c5cc(CN6CCOCC6)c(O)cc5CCC4C23)s1 (stereo partly drawn) [Compound 42, 3-((13S,15R)-3-hydroxy-13-methyl-2-(morpholinomethyl)-17-oxo-7,8,9,11,12,13,14,15,16,17-decahydro-6H-cyclopenta[a]phenanthren-15-yl)-N-(5-methylthiazol-2-yl)propanamide]	90	0		
Cc1cnc(NC(=O)CC[C@@H]2CC(=O)[C@@]3(C)CCC4c5cc(CN6CCOCC6)c(O)c([N+](=O)[O-])c5CCC4C23)s1 (stereo partly drawn) [Compound 43, 3-((13S,15R)-3-hydroxy-13-methyl-2-(morpholinomethyl)-4-nitro-17-oxo-7,8,9,11,12,13,14,15,16,17-decahydro-6H-cyclopenta[a]phenanthren-15-yl)-N-(5-methylthiazol-2-yl)propanamide]	94	0		
Cc1cnc(NC(=O)CC[C@@H]2CC(=O)[C@@]3(C)CCC4c5cc(CN(C)C)c(O)cc5CCC4C23)s1 (stereo partly drawn) [Compound 44, 3-((13S,15R)-2-((dimethylamino)methyl)-3-hydroxy-13-methyl-17-oxo-7,8,9,11,12,13,14,15,16,17-decahydro-6H-cyclopenta[a]phenanthren-15-yl)-N-(5-methylthiazol-2-yl)propanamide]	91	2		
Cc1cnc(NC(=O)CC[C@@H]2CC(=O)[C@@]3(C)CCC4c5cc(CN6CCCC6)c(O)cc5CCC4C23)s1 (stereo partly drawn) [Compound 45, 3-((13S,15R)-3-hydroxy-13-methyl-17-oxo-2-(pyrrolidin-1-ylmethyl)-7,8,9,11,12,13,14,15,16,17-decahydro-6H-cyclopenta[a]phenanthren-15-yl)-N-(5-methylthiazol-2-yl)propanamide]	83	0		
